Laboratory results published in patent publication US20040053822A1, “Inducing cellular immune responses to mage2/3 using peptide and nucleic acid compositions” (priority 2002, published 2004).

How the values were obtained:
[1] = tested on: 0.221A2.1 cell line (peptide-loaded target); test: Primary CTL induction from normal donor PBMC, 51Cr release on peptide-pulsed targets; type: cell-based, human
Procedure: (§1) The melanoma cells were treated with 100 U/ml IFNγ (Genzyme) for 48 hours at 37° C. before use as targets in the ^51Cr release and in situ IFNγ assays.
The monocytes were purified by plating 10×10^6 PBMC/well in a 6-well plate. After 2 hours at 37° C., the non-adherent cells were removed by gently shaking the plates and aspirating the supernatants. The wells were washed a total of three times with 3 ml RPMI to remove most of the non-adherent and loosely adherent cells. Three ml of complete medium containing 50 ng/ml of GM-CSF and 1,000 U/ml of IL4 were then added to each well. DC were used for CTL induction cultures following 7 days of culture.
Induction of CTL with DC and Peptide: CD8+ T-cells were isolated by positive selection with Dynal immunomagnetic beads (Dynabeads® M-450) and the detacha-bead® reagent. Typically about 200-250×10^6 PBMC were processed to obtain 24×10^6 CD8^+ T-cells (enough for a 48-well plate culture). Briefly, the PBMCs were thawed in RPMI with 30 μg/ml DNAse, washed once with PBS containing 1% human AB serum and resuspended in PBS/1% AB serum at a concentration of 20×10^6 cells/ml. The magnetic beads were washed 3 times with PBS/AB serum, added to the cells (140 μl beads/20×10^6 cells) and incubated for 1 hour at 4° C. with continuous mixing. The beads and cells were washed 4× with PBS/AB serum to remove the nonadherent cells and resuspended at 100×10^6 cells/ml (based on the original cell number) in PBS/AB serum containing 100 μ/ml detacha-bead® reagent and 30 μg/ml DNAse. The mixture is incubated for 1 hour at room temperature with continuous mixing. The beads were washed again with PBS/AB/DNAse to collect the CD8+ T-cells. The DC were collected and centrifuged at 1300 rpm for 5-7 minutes, washed once with PBS with 1% BSA, counted and pulsed with 40 μg/ml of peptide at a cell concentration of 1-2×10^6/ml in the presence of 3 μg/ml β2- microglobulin for 4 hours at 20° C. The DC were then irradiated (4,200 rads), washed 1 time with medium and counted again.
Setting up induction cultures: 0.25 ml cytokine-generated DC (@1×10^5 cells/ml) were co-cultured with 0.25 ml of CD8+ T-cells (@2×10^6 cell/ml) in each well of a 48-well plate in the presence of 10 ng/ml of IL-7. rHuman IL10 was added the next day at a final concentration of 10 ng/ml and rhuman IL2 was added 48 hours later at 10 IU/ml.
Restimulation of the induction cultures with peptide-pulsed adherent cells: Seven and fourteen days after the primary induction the cells were restimulated with peptide-pulsed adherent cells. The PBMCS were thawed and washed twice with RPMI and DNAse. The cells were resuspended at 5×10^6 cells/ml and irradiated at ˜4200 rads. The PBMCs were plated at 2×10^6 in 0.5 ml complete medium per well and incubated for 2 hours at 37° C. The plates were washed twice with RPMI by tapping the plate gently to remove the nonadherent cells and the adherent cells pulsed with 10 μg/ml of peptide in the presence of 3 μg/ml β2 microglobulin in 0.25 ml RPMI/5% AB per well for 2 hours at 37° C. Peptide solution from each well was aspirated and the wells were washed once with RPMI. Most of the media was aspirated from the induction cultures (CD8+ cells) and brought to 0.5 ml with fresh media. The cells were then transferred to the wells containing the peptide-pulsed adherent cells. Twenty four hours later rhuman IL10 was added at a final concentration of 10 ng/ml and rhuman IL2 was added the next day and again 2-3 days later at 50 IU/ml (Tsai et al., Critical Reviews in Immunology 18(l-2):65-75, 1998). Seven days later the cultures were assayed for CTL activity in a ^51Cr release assay. In some experiments the cultures were assayed for peptide-specific recognition in the in situ IFNγ ELISA at the time of the second restimulation followed by assay of endogenous recognition 7 days later. After expansion, activity was measured in both assays for a side by side comparison. […]

[2] = tested on: melanoma cell lines (624 mel and 888 mel); test: Primary CTL induction, 51Cr release on tumor targets (endogenous recognition); type: cell-based, human
Procedure: as §1
Restimulation of the induction cultures with peptide-pulsed adherent cells: Seven and fourteen days after the primary induction the cells were restimulated with peptide-pulsed adherent cells. The PBMCS were thawed and washed twice with RPMI and DNAse. The cells were resuspended at 5×10^6 cells/ml and irradiated at ˜4200 rads. The PBMCs were plated at 2×10^6 in 0.5 ml complete medium per well and incubated for 2 hours at 37° C. The plates were washed twice with RPMI by tapping the plate gently to remove the nonadherent cells and the adherent cells pulsed with 10 μg/ml of peptide in the presence of 3 μg/ml β2 microglobulin in 0.25 ml RPMI/5% AB per well for 2 hours at 37° C. Peptide solution from each well was aspirated and the wells were washed once with RPMI. Most of the media was aspirated from the induction cultures (CD8+ cells) and brought to 0.5 ml with fresh media. The cells were then transferred to the wells containing the peptide-pulsed adherent cells. Twenty four hours later rhuman IL10 was added at a final concentration of 10 ng/ml and rhuman IL2 was added the next day and again 2-3 days later at 50 IU/ml (Tsai et al., Critical Reviews in Immunology 18(l-2):65-75, 1998). Seven days later the cultures were assayed for CTL activity in a ^51Cr release assay. In some experiments the cultures were assayed for peptide-specific recognition in the in situ IFNγ ELISA at the time of the second restimulation followed by assay of endogenous recognition 7 days later. After expansion, activity was measured in both assays for a side by side comparison.
Seven days after the second restimulation, cytotoxicity was determined in a standard (5 hr) ^51Cr release assay by assaying individual wells at a single E:T. Peptide-pulsed targets were prepared by incubating the cells with 10 μg/ml peptide overnight at 37° C.
Adherent target cells were removed from culture flasks with trypsin-EDTA. Target cells were labelled with 200 μCi of ^51Cr sodium chromate (Dupont, Wilmington, Del.) for 1 hour at 37° C. […] Target cells.(100 μl) and 100 μl of effectors were plated in 96 well round-bottom plates and incubated for 5 hours at 37° C. At that time, 100 μl of supernatant were collected from each well and percent lysis was determined according to the formula: [(cpm of the test sample−cpm of the spontaneous ^51Cr release sample)/(cpm of the maximal ^51Cr release sample−cpm of the spontaneous ^51Cr release sample)]×100. Maximum and spontaneous release were determined by incubating the labelled targets with 1% Trition X-100 and media alone, respectively.
CTL Expansion. […] The cells were split if the cell concentration exceeded 1×10^6/ml and the cultures were assayed between days 13 and 15 at E:T ratios of 30, 10, 3 and 1:1 in the ^51Cr release assay or at 1×10^6/ml in the in situ IFNγ assay using the same targets as before the expansion.
The A2-supermotif cross-reactive binding peptides that were selected for further evaluation were tested in the cellular assay for the ability to induce peptide-specific CTL in normal individuals.

[3] = number of donors positive over the total number of donors tested
[4] = number of donors positive over total tested, tumor targets
[5] = Number of donors yielding a positive response/total tested

SMILES | CTL Wild-type [1, 3] | CTL Tumor [2, 4] | CTL Wild-type [1, 5] | CTL Tumor ([2]; donors positive over total tested, positive result seen after the second restim.)
CC[C@H](C)[C@H](N)C(=O)N[C@@H](CCSC)C(=O)N1CCC[C@H]1C(=O)N[C@@H](CCCCN)C(=O)N[C@@H](C)C(=O)NCC(=O)N[C@@H](CC(C)C)C(=O)N[C@@H](CC(C)C)C(=O)N[C@H](C(=O)N[C@H](C(=O)N[C@H](C(=O)O)C(C)C)[C@@H](C)CC)[C@@H](C)CC | 3/4 | 0/3^ | – | –
CC(C)C[C@H](NC(=O)[C@H](Cc1ccc(O)cc1)NC(=O)[C@H](CCC(=O)O)NC(=O)[C@H](CO)NC(=O)[C@H](C)NC(=O)[C@@H](N)CCCCN)C(=O)N[C@@H](CCC(N)=O)C(=O)N[C@@H](CC(C)C)C(=O)N[C@H](C(=O)O)C(C)C | 2/4 | 0/2^ | – | –
CC[C@H](C)[C@H](NC(=O)[C@@H](N)CCCCN)C(=O)N[C@@H](Cc1c[nH]c2ccccc12)C(=O)N[C@@H](CCC(=O)O)C(=O)N[C@@H](CCC(=O)O)C(=O)N[C@@H](CC(C)C)C(=O)N[C@@H](CO)C(=O)N[C@H](C(=O)N[C@@H](CC(C)C)C(=O)O)C(C)C | 3/4 | 0/3^ | 3/4 | –
CSCC[C@H](NC(=O)[C@@H](N)CCCCN)C(=O)N[C@H](C(=O)N[C@@H](CCC(=O)O)C(=O)N[C@@H](CC(C)C)C(=O)N[C@H](C(=O)N[C@@H](Cc1c[nH]cn1)C(=O)N[C@@H](Cc1ccccc1)C(=O)N[C@@H](CC(C)C)C(=O)O)C(C)C)C(C)C | 1/1 | 0/1^ | – | –
CSCC[C@H](NC(=O)[C@@H](N)CCCCN)C(=O)N[C@H](C(=O)N[C@@H](CCC(=O)O)C(=O)N[C@@H](CC(C)C)C(=O)N[C@H](C(=O)N[C@@H](Cc1c[nH]cn1)C(=O)N[C@@H](Cc1ccccc1)C(=O)N[C@@H](CC(C)C)C(=O)N[C@@H](CC(C)C)C(=O)O)C(C)C)C(C)C | 1/1 | 0/1^ | – | –
CSCC[C@H](NC(=O)[C@@H](N)CCCCN)C(=O)N[C@H](C(=O)N[C@@H](CCC(=O)O)C(=O)N[C@@H](CC(C)C)C(=O)N[C@H](C(=O)N[C@@H](Cc1c[nH]cn1)C(=O)N[C@@H](Cc1ccccc1)C(=O)N[C@@H](CC(C)C)C(=O)N[C@@H](CC(C)C)C(=O)N[C@@H](CC(C)C)C(=O)O)C(C)C)C(C)C | 1/1 | 0/1^ | – | –
CC(C)C[C@H](NC(=O)[C@H](CC(C)C)NC(=O)[C@H](Cc1ccccc1)NC(=O)[C@H](Cc1c[nH]cn1)NC(=O)[C@@H](NC(=O)[C@H](CC(C)C)NC(=O)[C@H](CCC(=O)O)NC(=O)[C@H](C)NC(=O)[C@@H](NC(=O)[C@@H](N)CCCCN)C(C)C)C(C)C)C(=O)O | 0/1 | 0/1^ | – | –
CC[C@H](C)[C@H](NC(=O)CNC(=O)[C@H](Cc1ccccc1)NC(=O)[C@@H](NC(=O)[C@@H](N)CC(C)C)C(C)C)C(=O)N[C@@H](CCC(=O)O)C(=O)N[C@H](C(=O)N[C@H](C(=O)N[C@@H](CCC(=O)O)C(=O)N[C@H](C(=O)O)C(C)C)C(C)C)C(C)C | 4/4 | 0/3^ | – | –
CC[C@H](C)[C@H](NC(=O)CNC(=O)[C@H](Cc1ccccc1)NC(=O)[C@@H](NC(=O)[C@H](CC(C)C)NC(=O)[C@@H](N)CCC(N)=O)C(C)C)C(=O)N[C@@H](CCC(=O)O)C(=O)N[C@@H](CC(C)C)C(=O)N[C@@H](CCSC)C(=O)N[C@@H](CCC(=O)O)C(=O)N[C@H](C(=O)O)C(C)C | – | – | – | 1/3^2
CC[C@H](C)[C@H](NC(=O)CNC(=O)[C@H](Cc1ccccc1)NC(=O)[C@@H](NC(=O)[C@H](CC(C)C)NC(=O)[C@H](CCC(N)=O)NC(=O)[C@H](CC(C)C)NC(=O)[C@@H](N)Cc1ccc(O)cc1)C(C)C)C(=O)N[C@@H](CCC(=O)O)C(=O)N[C@H](C(=O)O)C(C)C [YLQLVFG1EV] | – | – | 313 | –
